Results on 14 compounds are retold here after patent publication EP4752140A1, “SPIROCYCLICALKENYL OR AZAALKENYL COMPOUND, AND PHARMACEUTICAL COMPOSITION THEREOF, PREPARATION METHOD THEREFOR AND USE THEREOF” (Shanghai Meiyue Biotech Development Co., Ltd., priority 2023, dated 2025).

Molecules are shown by their SMILES. pIC50: −log10 of the molar value.

For data set [1], the system named is normal human serum (NHS). Put plainly: Complement-mediated hemolytic activity assay. Particulars: Erythrocyte, lysis of rabbit erythrocytes (RE) by NHS, GVB0 buffer with 10 mM Mg-EGTA, 37°C, read-out: Hemolysis IC50. It counts as cell-based. Here is the method:
The hemolysis assay was performed with reference to the method described in Xuan Yuan et al., Haematologica. (2017) 102: 466-475. Prior to the assay, the optimal concentration of normal human serum (NHS) required to achieve 100% lysis of rabbit erythrocytes (RE) was determined by titration. In this assay, NHS (collected from healthy volunteers) was diluted in GVB^0 buffer containing 10 mM Mg-EGTA (0.1% gelatin, 5 mM Veronal, 145 mM NaCl, 0.025% NaN3, pH 7.3, Complement Technology) and incubated with various concentrations of test compounds at 37°C for 15 minutes. RE (collected from healthy Japanese white rabbits), freshly suspended in GVB^0 buffer containing 10 mM Mg-EGTA, were then added to achieve a final concentration of 1 × 10^8 cells/mL and incubated at 37°C for 30 minutes. The positive control group (100% lysis) consisted of GVB^0 buffer containing 10 mM Mg-EGTA with NHS and RE but without test compounds. The negative control group (0% lysis) consisted of GVB^0 buffer containing 10 mM Mg-EGTA with inactivated NHS (heated at 56°C for 30 minutes or 65°C for 5 minutes) and RE but without test compounds. After centrifugation of the samples at 2000 g for 5 minutes, the supernatant was collected. Absorbance at 415 nm (A415) was measured using a microplate reader (Molecular Devices, SpectraMax i3X). IC50 values were calculated by nonlinear regression from the percentage of hemolysis as a function of test compound concentration.

The subject of data set [2] is Alternative Pathway of the Human Serum Complement System. Put plainly: Inhibitory effect on the alternative pathway of the human serum complement system (Wieslab kit). The data set is classed as biochemical. Particulars: complement activity, OD405, LPS-coated plate. The procedure:
Test compounds were evaluated starting at a concentration of 10 µM, with 3-fold serial dilutions across 8 concentration points. The final concentration of DMSO was 0.1%, and all measurements were performed in duplicate. A vial of human serum (Complement Technology, NHS) was removed from a -80°C ultra-low temperature freezer and allowed to thaw completely on ice. […] The plate was gently mixed on a microplate thermoshaker and incubated at room temperature for 15 minutes. Subsequently, 100 µL of the above mixture was carefully transferred to the pre-coated (LPS-containing) plate provided in the kit (WIESLAB® Complement System Alternative Pathway, AP330RUO). Additionally, 100 µL of Diluent AP was used as a blank control to avoid bubble formation. The plate was incubated at 37°C for 65 minutes. After incubation, the liquid in the wells was discarded, and the plate was washed with 1× wash buffer (300 µL/well) four times, with the liquid being removed as thoroughly as possible from the plate after the final wash. 100 µL of conjugate was added to each well, and the plate was incubated at room temperature (20 to 25°C) for 30 minutes, followed by repetition of the washing step. 100 µL of substrate solution was then added to each well, and the plate was incubated at room temperature (20 to 25°C) for 30 minutes in the dark. The OD405 value was read immediately, or the reaction was terminated by addition of 5 mM EDTA, and the OD405 value was read within 60 minutes. Complement activity was calculated according to the formula: % complement activity = (Sample - NC) / (PC - NC) × 100, and data analysis was performed.

The nature of data set [3]: Single-dose PK study in rats. The data set is classed as in vivo. To be noted: male SD rats, oral gavage 3 mg/kg, plasma; for half-life: read-out: Half-life T1/2 (converted); for Cmax: read-out: Maximum plasma concentration Cmax. Here is the method: (§1) Male SD rats (Shanghai Bikai Keyi Biotechnology Co. Ltd.) aged 6 to 9 weeks were fasted overnight. Three […] per group were administered the test compounds by oral gavage at a dosing volume of 10 mL/kg. Blood samples (0.2 mL per time point) were collected via the jugular vein into EDTA-K2 anticoagulant tubes and immediately centrifuged at 4000 rpm for 5 minutes at 4°C. The supernatants were collected. Blood samples were collected at the following time points: 15 minutes, 30 minutes, 1 hour, 2 hours, 4 hours, 7 hours, and 24 hours. The animals were continuously monitored for general condition after dosing. After completion of blood collection at all time points, the animals were euthanized. Plasma samples were analyzed by LC-MS/MS, and pharmacokinetic parameters were calculated using WinNonlin software.

Data set [4] can be described thus: Single-dose PK study in mice. To be noted: mouse, in vivo, male ICR mice, oral gavage 10 mg/kg, plasma. Here is the method:
as §1, with “ICR mice” for “SD rats”, “Co.,” for “Co.”, “weighing approximately 25 g” for “aged 6 to 9 weeks”, “(30 µL” for “(0.2 mL”, “orbital sinus” for “jugular vein”

Where [5] appears, read: rat, in vivo, read-out: Area under the curve AUC0-24h.
[6] abbreviates: rat, read-out: Area under the curve AUC0-24h.

The term pIC50 denotes −log10 of the IC50, conventionally taken in molar units. For the compound `COc1cc(C)c2[nH]ccc2c1CN1CC[C@H](C=C(F)F)C[C@H]1c1ccc(C(=O)O)cc1C` (single isomer, unassigned) [Compound 33-P1], in data set [1], the pIC50 is 7.08. Also, the pIC50 in data set [2] was 7.30. Besides, in data set [3] (setting [5]), the AUC(0-t) at 24 h is 10700 ng·h/mL. Moreover, in data set [3] (rat, in vivo), the half-life was 11.2 h and the Cmax was determined as 1240 ng/mL.

As to `COc1cc(C)c2[nH]ccc2c1CN1CCC2(CC(=C(F)F)C2)C[C@H]1c1ccc(C(=O)O)cc1` (some centres unmarked) [Compound 1], the pIC50 was 7.06 in data set [1] and 7.27 in data set [2]. For the same compound, the AUC(0-t) at 24 h in data set [4] (read-out: Area under the curve AUC0-24h) was determined as 9230 ng·h/mL; in data set [3] (setting [5]) it was 8320 ng·h/mL. Besides, the half-life in data set [4] (read-out: Half-life T1/2 (converted)) is 13.1 h; in data set [3] (rat, in vivo) it was 11.3 h. The Cmax came out at 1530 ng/mL in data set [4] (read-out: Maximum plasma concentration Cmax) and 720 ng/mL in data set [3] (rat, in vivo).

On to `COc1cc([C@@H]2C[C@@H](C=C(F)F)CCN2Cc2c(OC)cc(C)c3[nH]ccc23)ccc1C(=O)O` [Compound 36-P1], for which the pIC50 in data set [1] is 7.36. Moreover, the AUC(0-t) at 24 h in data set [3] (setting [5]) amounted to 4500 ng·h/mL. Further, in data set [3] (rat, in vivo), the half-life was 8.29 h and the Cmax stood at 667 ng/mL.

Take `COc1cc(C)c2[nH]ccc2c1CN1CC[C@H](C=C(F)F)C[C@H]1c1ccc(C(=O)O)cc1` [Compound 32-P1]: the pIC50 in data set [1] was 7.03. Besides, the pIC50 in data set [2] is 7.33. In addition, in data set [3] (setting [6]), the AUC(0-t) at 24 h was determined as 17600 ng·h/mL. Further, in data set [3] (rat), the half-life was 13.2 h and the Cmax came to 1290 ng/mL.

As for `Cc1cc(C2CC2)c(CN2CC[C@H](C=C(F)F)C[C@H]2c2ccc(C(=O)O)cc2)c2cc[nH]c12` [Compound 60-P1], the pIC50 in data set [1] is 6.94.

In the case of `CCO[C@H]1CCN(Cc2c(OC)cc(C)c3[nH]ccc23)[C@H](c2ccc(C(=O)O)cc2)C1` [Comparative Example 1, reference compound], the “Clearance CL” value in data set [3] stood at 13.549 mL/min/kg. Further, the AUC(0-t) in data set [3] (setting [6]) stood at 3660 ng·h/mL. In data set [3] (rat), the half-life was 3.38 h and the Cmax came out at 714 ng/mL.

On to `COc1cc(C)c2[nH]ccc2c1CN1CC[C@H](C=C(F)F)C[C@H]1c1ccc(C(=O)O)c(O)c1` [Compound 40-P1], for which, in data set [1], the pIC50 was 7.66.

As to `COc1cc(C)c2[nH]ccc2c1CN1CCC(=C(F)F)C[C@H]1c1ccc(C(=O)O)cc1` [Compound 19], the pIC50 in data set [1] was 5.55.

As for `COc1cc(C)c2[nH]ccc2c1CN1CC[C@H](C=C(F)F)C[C@H]1c1ccc(C(=O)O)c(Cl)c1` [Compound 35-P1], the pIC50 in data set [1] is 7.21.

For `Cc1cc(C)c2[nH]ccc2c1CN1CC[C@H](C=C(F)F)C[C@H]1c1ccc(C(=O)O)cc1` [Compound 37-P1], the pIC50 in data set [1] is 7.68.

In the case of `[2H]C([2H])([2H])Oc1cc(C)c2[nH]ccc2c1CN1CC[C@H](C=C(F)F)C[C@H]1c1ccc(C(=O)O)cc1` [Compound 39-P1], in data set [1], the pIC50 was 6.95. Besides, the AUC(0-t) at 24 h in data set [3] (setting [6]) came to 13300 ng·h/mL. Besides, in data set [3] (rat), the half-life is 9.44 h and the Cmax was found to be 1280 ng/mL.

For `COc1cc(C)c2[nH]ccc2c1CN1CCC(C=C(F)F)C[C@H]1c1ccc(C(=O)O)cc1Cl` (some centres unmarked) [Compound 34-1], the pIC50 in data set [1] was 7.21.

As to `COc1cc(Cl)c2[nH]ccc2c1CN1CC[C@H](C=C(F)F)C[C@H]1c1ccc(C(=O)O)cc1` [Compound 38-P1], in data set [1], the pIC50 is 6.86.

As to `COc1cc(C)c2[nH]ccc2c1CN1CC[C@H](C=C2CC2)C[C@H]1c1ccc(C(=O)O)cc1` [Compound 41-P1], the pIC50 in data set [1] was 7.46.
